Key:
[1] = test system: Pseudomonas aeruginosa ATCC 10145 and Staphylococcus aureus ATCC 6538; assay: MBC of DBMAL, THPS and blends against aerobic bacteria, 1 hr and 2 hr contact time; format: cell-based; settings: alone or in the blend; for MBC (ppm active) DBMAL: DBMAL concentration; for MBC (ppm active) THPS: THPS concentration
Experimental: (§1) The synergism of the biocides combination of the present invention was determined using the method described by Kull, F. C, et al. in Applied Microbiology 9:538-541 (1961).
Sterile salt solution (0.2203 g of CaCl2, 0.1847 g of MgSO4, and 0.2033 g of NaHCO3 in 1 L water, adjust pH to 7.4) was inoculated with approximately 10^7 CFU/mL of Pseudomonas aeruginosa ATCC 10145 and Staphylococcus aureus ATCC 6538.
Aliquots of the cell suspension were then treated with DBMAL, THPS, and combinations of these actives at selected concentrations.
After incubating at 37° C. for 1 hr, viable bacteria in each treated and untreated (control) cell suspensions were enumerated using a serial dilution method in Tryptic Soy Broth. The biocidal efficacy was determined by minimum biocide concentration for bacteria kill in the aliquots (MBC). Synergy Index was then calculated. Table 2 summarizes the MBC of each biocide and their blends, and the Synergy Index of each combination.
The same test procedure in Example 2 was used to evaluate the biocidal efficacy of DBMAL, THPS and their blends against aerobic bacteria in a 2-hr contact assay. Table 3 summarizes the MBC of each biocide and their blends, and the Synergy Index of each combination.

[2] = test system: Desulfovibrio longus ATCC 51456; assay: MBC of DBMAL, THPS and blends against anaerobic bacteria, 24 hour contact time; format: cell-based; settings: alone or in the blend, 40° C., 10^7 to 10^8 CFU/mL
Experimental: as §1
Inside an anaerobic chamber (Bactron anaerobic chamber), a deoxygenated sterile salt solution (3.1183 g of NaCl, 1.3082 mg of NaHCO3, 47.70 mg of KCl, 72.00 mg of CaCl2, 54.49 mg of MgSO4, 172.28 mg of Na2SO4, 43.92 mg of Na2CO3 in 1 L water, pH was adjusted to 7) was inoculated with Desulfovibrio longus ATCC 51456 to a final bacterial concentration of 10^7 to 10^8 CFU/mL. Aliquots of this cell suspension were then treated with DBMAL, THPS, and DBMAL/THPS blends, at selected active concentrations. After the treated cell suspensions were incubated at 40° C. for 24 hours, viable bacteria in each treated and untreated (control) cell suspensions were enumerated using a serial dilution method in Modified Baar's Medium (2.0 g of MgSO4, 5.7 g of Sodium citrate.2H2O, 1.0 g of CaSO4, 1.0 g of NH4Cl, 3.5 g of Sodium lactate, 1.0 g of Yeast extract, 0.5 g of K2HPO4, 0.1 g of Sodium Thioglycolate, 0.02 g of Fe(NH4)2(SO4)2, 20 g of NaCl in 1 L deionized water). The biocidal efficacy was determined by minimum tested biocide concentration for bacteria kill in the aliquots (MBC).
Table 1 summarizes the synergistic effect of each biocide and their blends, and the Synergy Index of each combination.

Row | Compound | MBC (ppm active) DBMAL ([1]; 2-hr contact assay) [ppm active] | MBC (ppm active) DBMAL ([1]; 37° C., 1 hr contact time) [ppm active] | MBC (ppm active) DBMAL ([2]; DBMAL concentration) [ppm active] | MBC (ppm active) THPS ([1]; 2-hr contact assay) [ppm active] | MBC (ppm active) THPS ([1]; 37° C., 1 hr contact time) [ppm active] | MBC (ppm active) THPS ([2]; THPS concentration) [ppm active]
1 | NC(=O)C(Br)(Br)C(N)=O [1:0, 2,2-dibromomalonamide] | 77.8 | >100.0 | 200.0 |  |  | 
2 | tetrakis(hydroxymethyl)phosphonium sulfate [0:1] |  |  |  | 29.6 | 100.0 | 50.0

From patent US9615574B2, “Compositions of dibromomalonamide and their use as biocides” (Dow Global Technologies LLC, priority 2013, dated 2017)
